Assay results: patent publication US7989495B2, “Compositions and methods for inhibiting NF-κB mediated tumorigenicity and adhesion dependent survival of cancer cells” (University of Utah Research Foundation, priority 2002, dated 2011)

How the values were obtained:
[1] = test system: HT-29 colon cancer cell line; assay: Cell proliferation assay (crystal violet, 590 nm); format: cell-based; conditions: 10 μM, cultured 8 days
Method: DLD-1, HCT-116, and HT-29 colon cancer cell lines were obtained from the ATCC collection and were cultured in Dulbecco's Modification of Eagle's Medium supplemented with 10% fetal bovine serum, glutamine, penicillin, and streptomycin. 293 cells stably transfected with COX-2 (293-COX-2) under the control of a ponasterone sensitive promoter were cultured in Dulbecco's Modification of Eagle's Medium supplemented with 10% fetal bovine serum, 400 μg/ml of zeocin, 400 μg/ml of G418, glutamine, penicillin, and streptomycin. For induction of COX-2 protein expression, 293-COX-2 cells were cultured for 48 hours in media supplemented with 1 μg/ml of ponasterone. All cells were cultured at 37° C. in a humidified incubator with a 5% CO2 atmosphere.
For the cell proliferation assay, cells were dispersed and plated at 40,000 cells/well in 96-well dishes. At various days in culture, the cells were gently washed twice with 100 μl/well of ice-cold blocking buffer (1% radioimmunoassay grade BSA in PBS) and twice with 100 μl/well of ice-cold PBS. The cells were fixed for 10 min in 100% ice-cold methanol (100 μl/well), then allowed to air-dry. The cells were stained with 100μl/well of 0.1% crystal violet in H2O for 10 minutes, then washed gently four times with dd H20 and four times with PBS. The plates were then air-dried completely. The stained cells were then solubilized in 1% sodium deoxycholate, and the plates read at 590 nm in a spectrophotometer. The absorption at 590 nm is proportional to the number of attached cells.

[2] = test system: HT-29 cells expressing IκB super-repressor; assay: Readhesion survival of cells transduced with adenovirus IκB super-repressor (crystal violet); format: cell-based; conditions: subapoptotic concentrations, readhesion 8 h
Method: (§1) The percentage of apoptotic cells was determined using the annexin V assay. The data points represent the averages of three experiments; bars, ±SE. E. DLD-1 and F. HT-29 cells were transduced with an adenovirus containing the IκB super-repressor construct. After 3 days, the cells were transiently suspended and allowed to readhere in the presence of subapoptotic concentrations of BAY 11-7085 or DMSO (vehicle) for 8 h. The data are expressed as fractions of cells surviving compared with the controls (no adenovirus) and were quantitatively determined by staining the remaining adherent cells with crystal violet.
(§2) DLD-1 and HT-29 cells that were approximately 60-70% confluent were transduced with Ad-IκB super-repressor by adding 1-50 μl of purified virus to the cells. […] In a parallel experiment, the transduced cells were resuspended and allowed to readhere in BAY 11-7085 for 8 h. The percentage of surviving (nonapoptotic) cells was determined using crystal violet staining.
(§3) The specific involvement of NF-κB in the apoptotic mechanism of BAY 11-7085 was examined specifically. […] The transduced DLD-1 and HT-29 cells were then transiently suspended and allowed to readhere at concentrations of BAY 11-7085 below the in vitro apoptotic threshold (>20 μM) for these cell lines. […] Therefore, inhibition of NF-κB is important to the apoptotic effect of BAY 11-7085 during colon cancer cell readhesion.

[3] = test system: DLD-1 cells expressing IκB super-repressor; assay: as above; format: cell-based; conditions: subapoptotic concentrations, readhesion 8 h
Method: as §1, §2, §3

[4] = test system: HCT-116 xenografts; assay: Subcutaneous colon cancer xenograft in athymic mice; format: in vivo
Method: DLD-1, HCT-116, and HT-29 cells were cultured for 6 days in soft agar in the presence of DMSO (control), 10 μM BAY 11-7082, or 10 μM BAY 11-7085. The data points represent the means of colony counts per field (20×) performed in 5 different regions of the culture dishes. The data shown represent a typical result of two separate experiments. FIGS. 2B,C, show athymic mice received subcutaneous injections of HT-29 (B) or HCT-116 (C) cells, followed by […] of BAY 11-7085 (dark bars) or DMSO (white bars) intraperitoneally twice weekly. The bars represent the 25-75% ranges of the tumor volumes and the horizontal lines in the bars are the medians. Using the Kruskal-Wallace statistical test to compare the median tumor volumes between BAY 11-7085 and DMSO yielded a p-value of 0.005 for HT-29 cells but >0.05 for HCT-116 cells.
HT-29 and HCT-116 cells were harvested in 0.25% trypsin-PBS-EDTA, washed once in media and PBS, and resuspended in PBS at 1 million cells per 200 μL. One million cells were injected either subcutaneously in the backs or intraperitoneally in 5 week old female nu/nu athymic mice (Charles River Labs). For the mice with subcutaneous tumors, the tumors were allowed to establish themselves for 10 days after which they were randomized to BAY 11-7085 or DMSO. For the mice with intraperitoneal tumors, the mice received DMSO or BAY 11-7085 (5 mg/kg) 24 hours before the cancer cells were injected intrapentoneally. All mice received BAY 11-7085 (5 mg/kg) or an equal volume of DMSO (˜200 μL) twice weekly for 21-32 days. Subcutaneous tumor sizes were determined by measuring the length and width with calipers. These studies were approved by the U. of Utah Institutional Review Board and Institutional Animal Care and Use Committee and performed in the Animal Resource Center. Mice were euthanized when they experienced a greater than 10% loss in body weight or if they appeared ill. Post-mortem examinations included sectioning of kidney, lung, and liver tissues which were stained with hematoxylin and eosin followed by examination for tissue toxicity/damage by an experienced mouse pathologist (E.J.E.) who was blinded to therapy.
(Wang et al., 1999) However, BAY 11-7082 or BAY 11-7085 alone inhibit colon cancer xenograft growth in athymic mice. HC-116, and HT-29 cell lines were used to generate subcutaneous tumors in athymic female mice. The mice were subsequently randomized to be treated with vehicle (DMSO) alone or BAY 11-7085 1 mg/kg twice weekly for 28 days.

In the case of `CC(C)(C)c1ccc(S(=O)(=O)/C=C/C#N)cc1` [BAY 11-7085, (2E)-3-[4-(tertiarybutylphenyl)sulfonyl]-2-propenenitrile], the “inhibition of cell proliferation” value [1] is reported as “greatly inhibited cell proliferation”, the “apoptotic threshold with IκB super-repressor expression compared with controls” value [2] is reported as “significantly lowered the apoptotic threshold” and the “apoptotic threshold with IκB super-repressor expression compared with controls” value [3] is reported as “significantly lowered the apoptotic threshold”. For the same compound, the “p-value, Kruskal-Wallace test of median tumor volumes vs DMSO” value ([4]; HCT-116, intraperitoneally twice weekly) was > 0.05 and the “tumor volumes, treatment group compared with control group” value ([4]; HCT-116 subcutaneous tumors, 1 mg/kg twice weekly for 28 days, vs DMSO) was “no statistically significant overall difference in the tumor volumes”.
